Assay results from patent publication US8129137B2, “Two-photon probe for real-time monitoring of intracellular free zinc ions, method for preparing the probe and method for real-time monitoring of intracellular free zinc ions using the probe” (Korea University Industrial & Academic Collaboration …, priority 2008, dated 2012).

Tests used:
[1] = Fluorescence quantum yield (Coumarin 307 as reference); format: physicochemical; conditions: in methanol in the presence of Zn2+
Method: The absorption spectra of the two-photon probes were recorded on a Hewlett-Packard 8453 diode array spectrophotometer, and the fluorescence spectra of the two-photon probes were obtained with an Amico-Bowman series 2 luminescence spectrometer with a 1 cm standard quartz cell. The fluorescence quantum yields of the two-photon probes were determined by using Coumarin 307 as the reference by the literature method (J. N. Demas, G. A. Crosby, J. Phys. Chem. 1971, 75, 991-1024.). FIGS. 2a and 2b are one-photon absorption and emission spectra of the two-photon probe AZn1, respectively, and FIGS. 2c and 2d are one-photon absorption and emission spectra of the two-photon probe AZn2, respectively.

[2] = Two-photon cross section and action spectra; format: physicochemical; conditions: in methanol in the presence of Zn2+; 780 nm
Method: The two-photon cross section (δ) was determined by using femto second (fs) fluorescence measurement technique.
The intensities of the two-photon induced fluorescence spectra of the reference and the sample probe were measured, and the two-photon cross section of the sample probe was calculated according to Equation 3:
[formula] wherein the subscripts s and r represent sample and reference molecules, respectively, δ represents the two-photon cross section, S represents the strength of signals collected by a CCD detector, φ represents the fluorescence quantum efficiency, φrepresents the total fluorescence collection efficiency of an experimental system, c represents the number density of the molecules within each of the solutions, and δr represents the two-photon cross section of reference molecules.
Referring to FIG. 9, the two-photon action spectra of the Zn^2+ complexes with AZn1 and AZn2 in the buffer solutions indicated a φδ value of ˜90 GM at 780 nm, 4˜24-fold larger than those of TSQ and FluZin-3.

- fluorescence quantum yield φ [1]: 0.43
- δ, peak two-photon cross section [2]: 10 GM
- φδ, two-photon action cross section [2]: 4 GM
Structure (SMILES): COc1cc(NS(=O)(=O)c2ccc(C)cc2)c2ncccc2c1 [TSQ, reference compound]
